This note sets out measurements from ChEMBL document CHEMBL1201862, “PubChem BioAssay data set” (2004).

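Method: 48-hour compound exposure of cells in 96-well plates, five concentrations, linear interpolation of endpoints. Here, GI50 denotes the concentration required for 50% inhibition of growth.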 Active and inactive are the calls of the source. Rule as the data show it: active = GI50 up to about 1.1 µM and inactive = higher.

Among the test systems are T47D; UACC-62; MCF7; MOLT-4; SK-MEL-28; OVCAR-5; CCRF-CEM; HT-29; OVCAR-8; HOP-92; UO-31; MDA-N; SN12C; HCT-116; SW-620; NCI-H522; A498; NCI-H460; U-251.
Common to all, as to experiment: DTP human tumour cell line panel, 48 h

The term GI50 denotes the concentration that inhibits growth by half.

On to `O=C1C=C(Nc2nc(O)cc(C(=O)O)n2)c2ccccc2C1=O`, for which the GI50 in the assay with T47D, with UACC-62, in the assay with MCF7, in the assay with MOLT-4, in the assay on SK-MEL-28 and with OVCAR-5 was > 100 µM (inactive) each time. Further, the GI50 with CCRF-CEM, in the assay with HT-29, in the assay on OVCAR-8, in the assay on HOP-92, with UO-31 and in the assay with MDA-N was > 100 µM (inactive) throughout. For the same compound, the GI50 in the assay on SN12C, in the assay with HCT-116, with SW-620, with NCI-H522, in the assay on A498 and in the assay on NCI-H460 was > 100 µM (inactive) each time. The GI50 in the assay with U-251 is > 100 µM (inactive).

Turning to `O=[N+]([O-])c1cc2ccc(N(CCO)CCO)nc2nc1N(CCO)CCO`, the GI50 with T47D, in the assay with UACC-62, with MCF7, with MOLT-4, with SK-MEL-28 and in the assay on OVCAR-5 was > 100 µM (inactive) each time. Also, the GI50 in the assay with CCRF-CEM, in the assay on HT-29, with OVCAR-8, with HOP-92, in the assay with UO-31 and with MDA-N was > 100 µM (inactive) throughout. In addition, the GI50 in the assay with SN12C, in the assay with HCT-116, with SW-620, in the assay on NCI-H522, with A498 and in the assay on NCI-H460 was > 100 µM (inactive) in each case. In addition, the GI50 in the assay with U-251 is > 100 µM (inactive).

`CCOC(=O)CN1CC(C2=C(O)CN(CC(=O)OCC)C2=O)=CC1=O`: the GI50 in the assay on T47D, in the assay on UACC-62, with MCF7, with MOLT-4, in the assay with SK-MEL-28 and with OVCAR-5 was > 100 µM (inactive) each time. Further, the GI50 in the assay with CCRF-CEM, in the assay on HT-29, in the assay on OVCAR-8, in the assay with HOP-92, in the assay with UO-31 and with MDA-N was > 100 µM (inactive) in each case. For the same compound, the GI50 in the assay with SN12C, in the assay with HCT-116, in the assay with SW-620, with NCI-H522, with A498 and in the assay on NCI-H460 was > 100 µM (inactive) throughout. In addition, the GI50 in the assay on U-251 is > 100 µM (inactive).

For `O=C1CC(=O)NC(NN2C(=O)/C(=C/c3ccccc3)N=C2c2ccccc2)=N1`, the GI50 is > 100 µM (inactive) in the assay with T47D; 26.7 µM (inactive) in the assay with UACC-62; > 100 µM (inactive) with MCF7; > 100 µM (inactive) in the assay on MOLT-4; > 100 µM (inactive) with SK-MEL-28; > 100 µM (inactive) in the assay with OVCAR-5. In addition, the GI50 was > 100 µM (inactive) with CCRF-CEM; > 100 µM (inactive) in the assay with HT-29; > 100 µM (inactive) with OVCAR-8; > 100 µM (inactive) in the assay on HOP-92; 32.9 µM (inactive) in the assay on UO-31; > 100 µM (inactive) in the assay with MDA-N. The GI50 in the assay on SN12C, with HCT-116, in the assay on SW-620, in the assay with NCI-H522, with A498 and in the assay on NCI-H460 was > 100 µM (inactive) throughout. Moreover, the GI50 in the assay on U-251 is > 100 µM (inactive).

With `C=CCNC1=C2C[C@@H](C)C[C@@H](OC)[C@H](OC(=O)CN(C)C)[C@H](C)/C=C(\C)[C@@H](OC(N)=O)[C@H](OC)/C=C\C=C(/C)C(=O)NC(=CC1=O)C2=O`, the GI50 in the assay on T47D was 4.82 µM (inactive); with UACC-62, 0.0467 µM (active); with MCF7, 0.0245 µM (active); in the assay with MOLT-4 it was 1.43 µM (inactive); in the assay with SK-MEL-28, 0.0897 µM (active); with OVCAR-5, 10.3 µM (inactive). In addition, the GI50 in the assay on CCRF-CEM is 3.08 µM (inactive); with HT-29, < 0.01 µM (active); in the assay on OVCAR-8, 0.163 µM (active); in the assay with HOP-92, 6.12 µM (inactive); in the assay with UO-31, 0.757 µM (active); in the assay with MDA-N, 0.0281 µM (active). Further, the GI50 is 0.0689 µM (active) with SN12C; 0.0871 µM (active) with HCT-116; 0.0228 µM (active) in the assay on SW-620; 0.183 µM (active) in the assay with NCI-H522; 0.262 µM (active) in the assay with A498; 0.0479 µM (active) in the assay with NCI-H460. For the same compound, the GI50 in the assay with U-251 was 0.188 µM (active).

For `COc1cc(S(=O)(=O)Nc2nc(-c3ccc(N4C(=O)/C(=C/c5ccccc5)N=C4c4ccccc4)cc3)cs2)ccc1Cl`, the GI50 is 42.2 µM (inactive) in the assay on T47D; 21.2 µM (inactive) in the assay on UACC-62; 35.6 µM (inactive) in the assay on MCF7; 28.2 µM (inactive) in the assay with MOLT-4; 54.7 µM (inactive) in the assay on SK-MEL-28; > 100 µM (inactive) in the assay on OVCAR-5. Further, the GI50 was 34.6 µM (inactive) in the assay with CCRF-CEM; 78.3 µM (inactive) in the assay with HT-29; 44.4 µM (inactive) in the assay on OVCAR-8; 34.4 µM (inactive) in the assay with HOP-92; > 100 µM (inactive) with UO-31; 37.3 µM (inactive) in the assay on MDA-N. Further, the GI50 with SN12C is 45 µM (inactive); with HCT-116 it was 36.5 µM (inactive); in the assay with SW-620 it was 55.1 µM (inactive); in the assay on NCI-H522, 35.3 µM (inactive); with A498, 31.3 µM (inactive); with NCI-H460 it was > 100 µM (inactive). The GI50 in the assay on U-251 was 36 µM (inactive).

In the case of `CCC1=CC2Cc3nc4cc(Cl)ccc4c(N)c3C(C1)C2` (stereo not given), the GI50 in the assay with T47D was 2.52 µM (inactive); in the assay with UACC-62, 6.04 µM (inactive); in the assay on MCF7, 3.25 µM (inactive); with MOLT-4, 0.822 µM (active); with SK-MEL-28 it was 2.86 µM (inactive); with OVCAR-5, 5.62 µM (inactive). Besides, the GI50 in the assay on CCRF-CEM was 3.35 µM (inactive); in the assay with HT-29, 3.02 µM (inactive); in the assay with OVCAR-8 it was 12.8 µM (inactive); with HOP-92, 1.91 µM (inactive); in the assay on UO-31, 4.92 µM (inactive); with MDA-N, 6.08 µM (inactive). Moreover, the GI50 with SN12C was 12.5 µM (inactive); in the assay with HCT-116 it was 2.54 µM (inactive); with SW-620, 8.91 µM (inactive); in the assay on NCI-H522, 7.5 µM (inactive); in the assay on A498, 4.86 µM (inactive); with NCI-H460, 4.07 µM (inactive). Moreover, the GI50 in the assay with U-251 is 8.59 µM (inactive).

Consider `C=C1C(=O)O[C@@H]2C[C@@]3(C)CCCC(=C)[C@@H]3C[C@H]12.C=C1C(=O)O[C@@H]2C[C@@]3(C)CCC[C@H](C)C3=C[C@H]12`, for which the GI50 with T47D is 1.09 µM (active); with UACC-62 it was 2.39 µM (inactive); with MCF7, 1.73 µM (inactive); in the assay with MOLT-4, 1.34 µM (inactive); with SK-MEL-28, 1.78 µM (inactive); in the assay on OVCAR-5, 4.82 µM (inactive). Moreover, the GI50 is 1.51 µM (inactive) in the assay with CCRF-CEM; 2.12 µM (inactive) in the assay on HT-29; 1.6 µM (inactive) with OVCAR-8; 1.9 µM (inactive) with HOP-92; 1.59 µM (inactive) in the assay with UO-31; 2.04 µM (inactive) in the assay on MDA-N. Also, the GI50 was 1.69 µM (inactive) with SN12C; 1.41 µM (inactive) in the assay with HCT-116; 1.64 µM (inactive) in the assay on SW-620; 1.38 µM (inactive) in the assay with NCI-H522; 1.71 µM (inactive) with A498; 3.75 µM (inactive) with NCI-H460. In addition, in the assay on U-251, the GI50 was 3.63 µM (inactive).

On to `S=c1[nH]c(=S)c2cc(Sc3ccc4[nH]c(=S)[nH]c(=S)c4c3)ccc2[nH]1`, for which the GI50 was 50.5 µM (inactive) in the assay on T47D; 20 µM (inactive) in the assay with UACC-62; 59.6 µM (inactive) in the assay on MCF7; 46.8 µM (inactive) with MOLT-4; 53.8 µM (inactive) with SK-MEL-28; > 100 µM (inactive) in the assay with OVCAR-5. Besides, the GI50 with CCRF-CEM was 25.6 µM (inactive); with HT-29 it was 41 µM (inactive); in the assay with OVCAR-8, 22 µM (inactive); in the assay with HOP-92, 32.3 µM (inactive); in the assay on UO-31 it was 26.9 µM (inactive); in the assay with MDA-N, 40.9 µM (inactive). In addition, the GI50 in the assay with SN12C was 40 µM (inactive); in the assay with HCT-116 it was 48.1 µM (inactive); with SW-620 it was 48.4 µM (inactive); with NCI-H522 it was 34.8 µM (inactive); in the assay on A498 it was 24.5 µM (inactive); in the assay on NCI-H460, 45.5 µM (inactive). Also, the GI50 in the assay on U-251 is 33 µM (inactive).

Consider `Nc1nc(OCC2CCCCC2)c2nc[nH]c2n1`, for which the GI50 in the assay with T47D is 6.98 µM (inactive); in the assay on UACC-62, 12.6 µM (inactive); in the assay on MCF7, 0.957 µM (active); in the assay with MOLT-4 it was 8.47 µM (inactive); in the assay with SK-MEL-28 it was 26.2 µM (inactive); with OVCAR-5, 13.6 µM (inactive). Also, the GI50 is 11.2 µM (inactive) with CCRF-CEM; 12.3 µM (inactive) in the assay with HT-29; 16.5 µM (inactive) in the assay with OVCAR-8; 10.3 µM (inactive) in the assay on HOP-92; 7.18 µM (inactive) with UO-31; 13.1 µM (inactive) with MDA-N. Moreover, the GI50 in the assay with SN12C was 10.2 µM (inactive); with HCT-116 it was 11.4 µM (inactive); in the assay on SW-620, 23.3 µM (inactive); in the assay on NCI-H522 it was 9.1 µM (inactive); with A498, 13.7 µM (inactive); in the assay with NCI-H460 it was 8.38 µM (inactive). Further, in the assay with U-251, the GI50 is 16.8 µM (inactive).
